Results taken from patent US20250205264A1, “METHODS OF USING AVERMECTIN COMPOSITIONS FOR THE TREATMENT OF SPASTICITY AND DOSING REGIMENS” (priority 2022, published 2025).

How the values were obtained:
[1] = Excipient compatibility study at 40° C./75% RH (HPLC Assay/Related Substances); type: physicochemical; settings: for Total Impurities % (% adjusted area): excluding API impurities; for Total Impurities % (% adjusted area) / Chromatographic purity by HPLC (% area): 40° C./75% RH
Procedure: An excipient compatibility study was initiated with selected excipients ranging from oils to surfactants based on equilibrium solubility results (Table 2). […] After solutions were prepared using a hand-held homogenizer (Model IKAT10 Ultra-Turrax), each excipient sample was aliquoted in amber vials, approximately 10% water was added in each excipient aliquot, and bench scale gel stripe OET-004037 was also made and added in a separate set of aliquot samples at approximately 1:1 w/w.
All samples were stored at 40° C./75% relative humidity (RH) condition (Model: Lunaire environmental chamber) and tested by developmental reversed phase HPLC method for Assay/Related Substances at T=0, 2 weeks, and 1 month.

[2] = Pharmacokinetics of Ivermectin B1a in SD rat plasma after IV or oral administration; settings: 2 mg/kg, fasting, male
Procedure: Thirty-six male Sprague Dawley rats were randomly assigned into four groups, with nine male rats in each group. All animals in all groups are fasted overnight prior to the experimental date.
Blood samples were collected from 6 of 9 animals per group at 0.5, 1, 2, 3, 4, 6, 8, 24, 72, 120, 168 hours post-dose.

[3] = Ivermectin solubility determination in excipients
Procedure: The solubility assessments were performed by continually adding a known amount of the API into each individual excipient and letting the excipient reach solubility equilibrium via API saturation (visible solid observed). The experiments were conducted at ambient conditions (25° C.) and were left to mix on a stir plate at 500 RPM for at least 72 hours.

[4] = in PEG 400, Control, T = 2 weeks
[5] = in PEG 400, Gel Stripe (1:1 w/w), T = 2 weeks
[6] = in Tween 80, 10% water, T = 1 months
[7] = in Tween 80, 10% water, T = 2 weeks
[8] = in Tween 80, Control, T = 1 months
[9] = in Tween 80, Control, T = 2 weeks
[10] = in Tween 80, Gel Stripe (1:1 w/w), T = 1 months
[11] = in Tween 80, Gel Stripe (1:1 w/w), T = 2 weeks
[12] = in Vitamin E TPGS, 10% water, T = 1 months
[13] = in Vitamin E TPGS, 10% water, T = 2 weeks
[14] = in Vitamin E TPGS, Control, T = 0
[15] = in Vitamin E TPGS, Control, T = 1 months
[16] = in Vitamin E TPGS, Control, T = 2 weeks
[17] = in Vitamin E TPGS, Gel Stripe (1:1 w/w), T = 1 months
[18] = in Vitamin E TPGS, Gel Stripe (1:1 w/w), T = 2 weeks

ivermectin
Total Impurities % (% adjusted area) ([1]; in PEG 400, 10% water, T = 2 weeks): 3.15 % adjusted area
Chromatographic purity by HPLC (% area) ([1]; in PEG 400, Control, T = 0): 97.58 % area
Total Impurities % (% adjusted area) ([1]; in PEG 400, Control, T = 0): 0.10 % adjusted area
Chromatographic purity by HPLC (% area) [1, 4]: 89.36 % area
Total Impurities % (% adjusted area) [1, 4]: 8.54 % adjusted area
Chromatographic purity by HPLC (% area) [1, 5]: 96.92 % area
Total Impurities % (% adjusted area) [1, 5]: 0.50 % adjusted area
Chromatographic purity by HPLC (% area) [1, 6]: 91.18 % area
Total Impurities % (% adjusted area) [1, 6]: 6.94 % adjusted area
Chromatographic purity by HPLC (% area) [1, 7]: 93.02 % area
Total Impurities % (% adjusted area) [1, 7]: 3.53 % adjusted area
Chromatographic purity by HPLC (% area) ([1]; in Tween 80, Control, T = 0): 97.53 % area
Total Impurities % (% adjusted area) ([1]; in Tween 80, Control, T = 0): 0.16 % adjusted area
Chromatographic purity by HPLC (% area) [1, 8]: 88.45 % area
Total Impurities % (% adjusted area) [1, 8]: 10.55 % adjusted area
Chromatographic purity by HPLC (% area) [1, 9]: 91.87 % area
Total Impurities % (% adjusted area) [1, 9]: 4.86 % adjusted area
Chromatographic purity by HPLC (% area) [1, 10]: 93.51 % area
Total Impurities % (% adjusted area) [1, 10]: 4.22 % adjusted area
Chromatographic purity by HPLC (% area) [1, 11]: 93.97 % area
Total Impurities % (% adjusted area) [1, 11]: 2.43 % adjusted area
Chromatographic purity by HPLC (% area) [1, 12]: 97.46 % area
Total Impurities % (% adjusted area) [1, 12]: <LOQ
Chromatographic purity by HPLC (% area) [1, 13]: 96.99 % area
Total Impurities % (% adjusted area) [1, 13]: 0.42 % adjusted area
Chromatographic purity by HPLC (% area) [1, 14]: 97.74 % area
Total Impurities % (% adjusted area) [1, 14]: <LOQ
Chromatographic purity by HPLC (% area) [1, 15]: 97.37 % area
Total Impurities % (% adjusted area) [1, 15]: 0.11 % adjusted area
Chromatographic purity by HPLC (% area) [1, 16]: 97.43 % area
Total Impurities % (% adjusted area) [1, 16]: <LOQ
Chromatographic purity by HPLC (% area) [1, 17]: 97.74 % area
Total Impurities % (% adjusted area) [1, 17]: <LOQ
Chromatographic purity by HPLC (% area) [1, 18]: 97.50 % area
Total Impurities % (% adjusted area) [1, 18]: <LOQ
chemical compatibility with the API ([1]; oily vehicles Maisine CC, fractionated coconut oil, and oleic acid): good chemical compatibility
AUC(0-t) [2]: 8259.31 ± 1032.95 ng·h/mL
AUC(0-∞) [2]: 8273.53 ng·h/mL
Cmax [2]: 1722.67 ng/mL
MRT(0-t) [2]: 10.58 h
MRT(0-∞) [2]: 10.81 h
T1/2 [2]: 14.82 ± 0.72 h
Tmax [2]: 0.50 h
Solubility ([3]; in Capryol 90, 25° C.): 150.92 mg/g
Solubility ([3]; in Fractionated Coconut oil, 25° C.): 16.55 mg/g
Solubility ([3]; in Glycerin, 25° C.): <0.1 mg/g
Solubility ([3]; in Kolliphor EL, 25° C.): 95.85 mg/g
Solubility ([3]; in Labrafil M 2125 CS, 25° C.): 35.32 mg/g
Solubility ([3]; in Labrasol ALF, 25° C.): 126.36 mg/g
Solubility ([3]; in LauroglycolTM FCC, 25° C.): 71.96 mg/g
Solubility ([3]; in Maisine CC, 25° C.): 60.17 mg/g
Solubility ([3]; in Masester E8120, 25° C.): 164.06 mg/g
Solubility ([3]; in Medium Chain Triglyceride, 25° C.): 16.49 mg/g
Solubility ([3]; in Oleic acid, 25° C.): 48.58 mg/g
Solubility ([3]; in Olive oil, 25° C.): 4.71 mg/g
Solubility ([3]; in PEG 400, 25° C.): 112.92 mg/g
Solubility ([3]; in Propylene glycol, 25° C.): 25.61 mg/g
Solubility ([3]; in Soybean oil, 25° C.): 6.72 mg/g
Solubility ([3]; in Span 20, 25° C.): 97.66 mg/g
Solubility ([3]; in Span 80, 25° C.): 54.04 mg/g
Solubility ([3]; in Triacetin, 25° C.): 58.75 mg/g
Solubility ([3]; in Tween 80, 25° C.): 88.26 mg/g
Solubility ([3]; in Vitamin E TPGS, table title 25° C., text b171: conducted at 40° C.): 82.98 mg/g
